Experimental findings from ChEMBL document CHEMBL1122434, “Antitumor amino-substituted pyrido[3',4':4,5]pyrrolo[2,3-g]isoquinolines and pyrido[4,3-b]carbazole derivatives: synthesis and evaluation of compounds resulting from new side chain and heterocycle modifications” (J Med Chem, 1983) are described below.

By ILS is commonly meant the gain in survival time of treated over control animals, in per cent. A higher ILS goes with a large benefit in survival.

Numbered stars: 1 amine (or outer) side, 2 acyl side, 3 side chain; on linkers, the order of the positions; unused ones are H or OH. Bridge positions count the residues as written; N and C are the ends. Square brackets hold non-standard residues; d marks the D form. Peptide text beside a SMILES is read from it. I, II: the chains in the order shown. Actinocin(1to9) = Cc1c2oc3c(C)ccc(C(=O)[*:2])c3nc-2c(C(=O)[*:1])c(N)c1=O; NMeV = CN[C@H](C(=O)O)C(C)C; Sar = CNCC(=O)O

The test system of series [1] is L1210. The series can be described thus: Antitumor activity against L1210 leukemia cells measured as Median survival time at 10 mg/kg. The series is classed as functional, Mus musculus.
The subject of series [2] is L1210. The series can be described thus: Antitumor activity against L1210 leukemia cells measured as range of death at 10 mg/kg. In kind it is functional, Mus musculus.
Series [3] concerns L1210. The series can be described thus: Cytotoxicity against L1210 tumor cell line, activity is expressed as K (inverse value of drug concentration). In kind it is functional, cell-based. The following applies: Mus musculus.
The test system of series [4] is L1210. The series can be described thus: In vitro cytotoxicity against L1210 cell line as concentration required for 50% inhibition of cell growth. The series is classed as functional. The following applies: Mus musculus, read-out: ID50 (the source's name).
A short description of series [5]: Acute toxicity in mice (LD0) after i.p. administration (highest nontoxic dose). In kind it is organism-based. The following applies: mouse, in vivo, ip; read-out: LD0.
A further series has as its system Mus musculus. Briefly: Acute toxicity in mice (LD100) after i.p. administration. In kind it is organism-based. The following applies: in vivo, ip.
The test system of series [6] is L1210. The series can be described thus: Antitumor activity against L1210 leukemia cells measured as percent increase in life span (% ILS) at 10 mg/kg. The series is classed as functional. The following applies: Mus musculus.
Series [7] deals with L1210. The series can be described thus: Antitumor activity against L1210 leukemia cells measured as range of death at 10 mg/kg; value may range from 16 to 20. The following applies: Mus musculus.
Series [8] concerns L1210. The series can be described thus: Antitumor activity against L1210 leukemia cells measured as range of death at 10 mg/kg; value may range from 14 to 19. In kind it is functional, Mus musculus.
Series [9] deals with L1210. Briefly: Antitumor activity against L1210 leukemia cells measured as Median survival time at 12 mg/kg. In kind it is functional, Mus musculus.
The test system of series [10] is L1210. Briefly: Antitumor activity against L1210 leukemia cells measured as range of death at 12 mg/kg; value may range from 12 to 14. In kind it is functional, Mus musculus.
Series [11] deals with L1210. The series can be described thus: Antitumor activity against L1210 leukemia cells measured as range of death at 10 mg/kg; value may range from 16 to 42. In kind it is functional, Mus musculus.
For series [12], the system named is L1210. The series can be described thus: Antitumor activity against L1210 leukemia cells measured as range of death at 2.5 mg/kg; value may range from 14 to 19. The series is classed as functional, Mus musculus.
For series [13], the system named is L1210. Briefly: Antitumor activity against L1210 leukemia cells measured as Median survival time at 2.5 mg/kg. The series is classed as functional, Mus musculus.
For series [14], the system named is L1210. Briefly: Antitumor activity against L1210 leukemia cells measured as Median survival time at 15 mg/kg. The series is classed as functional, Mus musculus.
The subject of series [15] is L1210. The series can be described thus: Antitumor activity against L1210 leukemia cells measured as range of death at 15 mg/kg; value may range from 7 to 44. The following applies: Mus musculus.
Series [16] concerns L1210. Briefly: Antitumor activity against L1210 leukemia cells measured as Median survival time at 3.75 mg/kg. In kind it is functional, Mus musculus.
Series [17] deals with L1210. The series can be described thus: Antitumor activity against L1210 leukemia cells measured as range of death at 3.75 mg/kg; value may range from 15 to 21. In kind it is functional, Mus musculus.
The test system of series [18] is L1210. Briefly: Antitumor activity against L1210 leukemia cells measured as range of death at 10 mg/kg; value may range from 8 to 28. The series is classed as functional, Mus musculus.
Series [19] deals with L1210. Briefly: Antitumor activity against L1210 leukemia cells measured as range of death at 10 mg/kg; value may range from 12 to 25. In kind it is functional, Mus musculus.

In the series on L1210 [1], `COc1ccc2[nH]c3c(C)c4ccnc(NCCCN(CCCl)CCCl)c4cc3c2c1` came in with an MST of 13.6 days. In the series on L1210 [2], this molecule yielded a Range of death of 12 days. The K with L1210 [3] turned out to be 5 µM⁻¹. For the same molecule, in the series on L1210 [4], the IC50 was 200 nM. The MTD in [5] was determined as 15 mg/kg. In addition, the LD100 in the series on Mus musculus came to 20 mg/kg. Also, the ILS at 10 mg/kg in the series with L1210 [6] came out at 26%.
On to `Cc1c2oc3c(C)ccc(C(=O)N[C@@H]4C(=O)N[C@H](C(C)C)C(=O)N5CCC[C@H]5C(=O)N(C)CC(=O)N(C)[C@@H](C(C)C)C(=O)O[C@@H]4C)c3nc-2c(C(=O)N[C@@H]2C(=O)N[C@H](C(C)C)C(=O)N3CCC[C@H]3C(=O)N(C)CC(=O)N(C)[C@@H](C(C)C)C(=O)O[C@@H]2C)c(N)c1=O` [DACTINOMYCIN] (I: T[dV]P[Sar][NMeV] / II: T[dV]P[Sar][NMeV]; ester I:1-I:C, II:1-II:C; linker I:N-II:N via Actinocin(1to9)), for which, in the series on L1210 [3], the K was found to be 1000 µM⁻¹. For the same molecule, in the series on L1210 [4], the IC50 turned out to be 1 nM.
In the series on L1210 [1], `CCN(CC)CCCNc1nccc2c(C)c3[nH]c4ccncc4c3c(C)c12` showed an MST of 16.8 days. In the series on L1210 [3], this molecule yielded a K of 143 µM⁻¹. In addition, in the series on L1210 [4], the IC50 stood at 7 nM. The molecule further registered a Range of death in the series on L1210 [7] of 20 days. Besides, in series [5], the MTD stood at 10 mg/kg. The molecule also had an LD100 in the series with Mus musculus of 20 mg/kg. In addition, the ILS at 10 mg/kg in the series with L1210 [6] amounted to 46%.
`CCN(CC)CCCNc1nccc2c(C)c3c(c(C)c12)c1cc(O)ccc1n3C` displayed an MST with L1210 [1] of 16.1 days. The K with L1210 [3] was 5 µM⁻¹. For the same molecule, in the series on L1210 [4], the IC50 stood at 200 nM. In the series with L1210 [8], this molecule returned a Range of death of 19 days. The MTD in series [5] came out at 12 mg/kg. The molecule also registered an LD100 in the series on Mus musculus of 25 mg/kg. This molecule also gave an increase in lifespan (ILS) at 10 mg/kg in the series with L1210 [6] of 66.5%.
Consider `CCN(CC)CCCNc1nccc2c(C)c3c(cc12)c1cc(O)ccc1n3C`, for which, in the series on L1210 [3], the K was 16 µM⁻¹. Moreover, the IC50 in the series on L1210 [4] was found to be 60 nM. This molecule also registered an MST in the series with L1210 [9] of 13 days. Besides, the MTD in series [5] is 12.5 mg/kg. This molecule showed an LD100 in the series with Mus musculus of 25 mg/kg. Besides, in the series on L1210 [10], the Range of death was determined as 14 days.
Molecule `CCNCCCNc1nccc2c(C)c3[nH]c4ccncc4c3cc12` displayed an MST with L1210 [1] of 25 days. In the series on L1210 [3], this molecule returned a K of 10 µM⁻¹. Moreover, in the series on L1210 [4], the IC50 came out at 100 nM. Further, in the series with L1210 [11], the Range of death turned out to be 42 days. The MTD in [5] was determined as 20 mg/kg. The same molecule gave an LD100 in the series on Mus musculus of 30 mg/kg. In the series on L1210 [6], this molecule returned an ILS at 10 mg/kg of 114%.
For `CCN(CC)CCCNc1nccc2c(C)c3[nH]c4ccc(O)cc4c3c(C)c12`, the K with L1210 [3] was found to be 33 µM⁻¹. In the series on L1210 [12], this molecule yielded a Range of death of 19 days. The IC50 in the series with L1210 [4] came to 30 nM. The MST in the series with L1210 [13] worked out at 16.5 days. In addition, the MTD in series [5] was 3 mg/kg. The same molecule registered an LD100 with Mus musculus of 10 mg/kg.
In turn, `Cc1c2ccnc(NCCCN(C)C)c2c(C)c2c1[nH]c1ccncc12` showed a K in the series with L1210 [3] of 125 µM⁻¹. The IC50 in the series with L1210 [4] is 8 nM. Moreover, the MST with L1210 [14] came to 25.2 days. This molecule yielded a Range of death with L1210 [15] of 44 days. Further, the MTD in series [5] came to 15 mg/kg. Also, the LD100 in the series on Mus musculus came out at 20 mg/kg.
In the series with L1210 [3], `COc1ccc2[nH]c3c(C)c4ccnc(NCCCN(CCO)CCO)c4c(C)c3c2c1` yielded a K of 2.5 µM⁻¹. Besides, the IC50 in the series on L1210 [4] amounted to 400 nM. The same molecule gave an MST with L1210 [16] of 18.4 days. In the series with L1210 [17], this molecule displayed a Range of death of 21 days. Besides, in series [5], the MTD is 10 mg/kg. In the series on Mus musculus, the LD100 came to 15 mg/kg.
`CCNCCCNc1nccc2c(C)c3[nH]c4ccc(OC)cc4c3c(C)c12` showed an MST with L1210 [1] of 20 days. The K with L1210 [3] turned out to be 10 µM⁻¹. For the same molecule, the IC50 with L1210 [4] is 100 nM. The MTD in [5] was found to be 16 mg/kg. For the same molecule, the LD100 in the series on Mus musculus amounted to 20 mg/kg. In the series on L1210 [6], this molecule gave an increase in life span (ILS) at 10 mg/kg of 84%. Besides, the Range of death in the series with L1210 [18] worked out at 28 days.
For `CCNCCCNc1nccc2c(C)c3[nH]c4ccc(OC)cc4c3cc12`, in the series on L1210 [1], the MST stood at 14.8 days. In the series with L1210 [3], this molecule displayed a K of 1.7 µM⁻¹. Also, in the series on L1210 [19], the Range of death was determined as 25 days. In addition, the IC50 in the series with L1210 [4] was 600 nM. In series [5], the MTD was 20 mg/kg. The molecule also came in with an LD100 in the series with Mus musculus of 30 mg/kg. The same molecule yielded an increase in lifespan (ILS) at 10 mg/kg with L1210 [6] of 26%.
